What follows are molecules tested on Nucleic Acid (assay: Compound was evaluated for DNA (poly[dA]-poly[dT]) binding affinity). Settings: not given.
Assay type: nucleic-acid assay

K | SMILES
203000 | CN(C)CCCC(=O)Nc1ccc2c(c1)cc1c(=O)n3c(cc4cc(NC(=O)CCCN(C)C)ccc43)c(=O)n12

What follows are molecules tested on L1210 (assay: The compound was tested for cytotoxic activity using standard L1210 cell based cytotoxicity assay). Settings: Mus musculus.
Assay type: functional

SMILES | IC50 [µM]
CN(C)CCCC(=O)Nc1csc(C(=O)Nc2ccc3c(c2)cc2c(=O)n4c(cc5cc(NC(=O)c6csc(NC(=O)CCCN(C)C)n6)ccc54)c(=O)n23)n1 | 4
Nc1ccc2c(c1)cc1c(=O)n3c(cc4cc(N)ccc43)c(=O)n12 | 30
CC(C)(C)OC(=O)Nc1ccc2c(c1)cc1c(=O)n3c(cc4cc(NC(=O)OC(C)(C)C)ccc43)c(=O)n12 | 29
CN(C)CCCC(=O)Nc1ccc(C(=O)Nc2ccc3c(c2)cc2c(=O)n4c(cc5cc(NC(=O)c6ccc(NC(=O)CCCN(C)C)cc6)ccc54)c(=O)n23)cc1 | 7
CN(C)CCCC(=O)Nc1ccc2c(c1)cc1c(=O)n3c(cc4cc(NC(=O)CCCN(C)C)ccc43)c(=O)n12 | 0.034
